Columns and labels:
mice of ddK strain = test: KCN anoxia test; format: in vivo
[1] = tested on: cerebral glucose uptake and oxidation of succinic acid in mitochondria; details: cited from earlier work
[2] = tested on: sensitized bronchial muscle; test: Antiallergic action: inhibition of egg albumin-induced contraction of sensitized guinea pig bronchial muscle; format: tissue-based, guinea pigs of Hartley strain; details: Cavia porcellus
Procedure: Male guinea pigs of Hartley strain (body weight: about 250 g) were intraperitoneally or intramuscularly dosed with egg albumin (dose 100 mg/kg) and the same procedure was repeated after 3 days. After 3 to 4 weeks, the guinea pi-as were bled to death and the sensitized bronchial muscle was excised and cut into 1.5 mm thick rings. Three rings were joined to prepare a specimen. The specimen was suspended in a tissue bath and a load of 1 g was applied. […] After stabilization of the specimen (after about 1 hour), histamine hydrochloride was added to the bath at a final concentration of 10^-5 M. The contraction curve was recorded. After the contraction had been stabilized, the specimen was washed with 3 portions of Ringer's solution at 10-minute intervals to stabilize the contraction (about 1 hour was required). Then, the test compound was added to the tissue bath and, after an interval of 10 minutes, 5 mg/ml of egg albumin was added. The contraction amplitude of the specimen was measured and the percent inhibition was calculated according to the following formula. [formula] A: Contraction amplitude of control group when egg albumin is added A': Contraction amplitude of dosage group when egg albumin is added
H: Contraction amplitude of control group when histamine hydrochloride is added
H': Contraction amplitude of dosage group when histamine hydrochloride is added

Acute toxicity (LD50) = details: mouse, in vivo; male ddK mice, 20-23 g, 10 animals per group, oral
From the text: Toxicity studies also made it clear that the terpene amino alcohols according to the present invention are of low toxicity.

Compound	Survival rate (%) (mice of ddK strain; 3 mg/kg i.p., KCN 2.65 mg/kg i.v. after 30 minutes, 180 seconds, control 0)	Number of survivals/Number of mice used (mice of ddK strain; 3 mg/kg i.p., KCN 2.65 mg/kg i.v. after 30 minutes, 180 seconds, control 0/8)	anti-anoxic action (in words) (mice of ddK strain; KCN anoxia test)	reported cerebral actions (in words) [1]	inhibition at 10 µM ([2]; 10^-5 M)	inhibition at 1 µM ([2]; 10^-6 M)	inhibition at 0.1 µM ([2]; 10^-7 M)	inhibition at 0.01 µM ([2]; 10^-8 M)	LD50 (Acute toxicity (LD50))
dihydroergotoxine mesilate [reference compound]	10.0%	1/10	not sufficiently remarkable	promotes cerebral glucose uptake and oxidation of succinic acid in mitochondria and increases the cerebral blood flow	–	–	–	–	–
CC(C)CCCC(C)CCCC(C)CCCC(C)(O)C(O)CN(C)C (stereo not drawn) [Compound (32)]	–	–	–	–	40%	61.1%	25%	10%	3880 mg/kg

From US5284850A, “Terpene amino alcohols and medicinal uses thereof” (Kuraray Co., Ltd., priority 1985, dated 1994)
